Data: paper PMC6516043, “Functional Analysis of the Chemosensory Protein GmolCSP8 From the Oriental Fruit Moth, Grapholita molesta (Busck) (Lepidoptera: Tortricidae)” (Frontiers in Physiology, 2019)
Like-named read-outs stand apart in the source and are kept apart here.

Experiments:
rGmolCSP8 [1] = target: T1, rGmolCSP8 (Grapholita molesta, UniProt A0A0M4FML8); assay: Fluorescence competitive binding assay (1-NPN displacement), wild-type
Procedure: The fluorescence spectra were recorded using a fluorescence spectrophotometer (F-4500, Hitachi, Tokyo, Japan) in a 1 cm light path fluorimeter quartz cuvette with 10 nm slits for excitation and 20 nm slits for emission. […] The fluorescent probe N-phenyl-1-naphthylamine (1-NPN) and all putative ligands used in binding assays were dissolved in methanol (HPLC purity grade) to obtain a 1 mM stock solution. The rGmolCSP8 protein was diluted to in 20 mM Tris–HCl to obtain a 2 μM solution, pH 7.4. […] The fluorescent probe was excited at 337 nm and emission spectra were recorded from 370 to 550 nm. […] Binding data were obtained from three replicates assays for each concentration of each tested ligand.

GmolCSP8-V40A = GmolCSP8-V40A (Grapholita molesta, UniProt A0A0M4FML8, V55A); assay: biochemical; type: binding
Chain of GmolCSP8-V40A (A0A0M4FML8 entry or part of it V55A): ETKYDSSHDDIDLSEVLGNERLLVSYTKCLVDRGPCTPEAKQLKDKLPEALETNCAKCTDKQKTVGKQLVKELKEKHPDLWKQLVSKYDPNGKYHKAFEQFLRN
Procedure: (§1) To determine whether GmolCSP8 is involved in odorant binding, fluorescence competitive binding assays were performed ([Zhong et al., 2012]). The fluorescence spectra were recorded using a fluorescence spectrophotometer (F-4500, Hitachi, Tokyo, Japan) in a 1 cm light path fluorimeter quartz cuvette with 10 nm slits for excitation and 20 nm slits for emission. The selected chemicals are listed in Table 2, and included four sex pheromone components and 34 volatiles from different host plants (peach and pear trees) of G. molesta based on previous investigations ([Natale et al., 2004]; [Lu et al., 2012]; [Najar-Rodriguez et al., 2013b]). The fluorescent probe N-phenyl-1-naphthylamine (1-NPN) and all putative ligands used in binding assays were dissolved in methanol (HPLC purity grade) to obtain a 1 mM stock solution. The rGmolCSP8 protein was diluted to in 20 mM Tris–HCl to obtain a 2 μM solution, pH 7.4. To measure the binding affinity of 1-NPN for GmolCSP8, a 2 μM solution of protein was titrated with aliquots of 1 mM 1-NPN prepared to final concentrations ranging from 1 to 22 μM. The fluorescent probe was excited at 337 nm and emission spectra were recorded from 370 to 550 nm. […] Binding data were obtained from three replicates assays for each concentration of each tested ligand. Dissociation constants (Kd) of protein to 1-NPN were calculated by non-linear regression, using GraphPad Prism 4.00 software (GraphPad Software Inc.). The inhibition constants (Ki) of the competitors were determined using the corresponding IC50 values (concentration of competitor that reduced the initial fluorescence intensity by half) based on the following equation: Ki = [IC50]/(1+[1-NPN]/K1-NPN), where [1-NPN] is the free concentration of 1-NPN and K1-NPN is the dissociation constant of the complex GmolCSP8/1-NPN.
(§2) To verify the four predicted key amino acid sites of GmolCSP8 binding for 1-hexanol, recombinant plasmids for four CSP8 mutants were obtained via site-directed mutagenesis experiments. Specific primers introducing mutation sites of the four key amino acid CSP8 plasmids (GmolCSP8-T27A, GmolCSP8-L30A, GmolCSP8-V40A, and GmolCSP8-L80A) were designed and are listed in Table 1. The four mutants were mutated by using the TaKaRa MutanBEST Kit (TaKaRa, Shiga, Japan) with the pMD®19-T/GmolCSP8 plasmid DNA as template. All plasmids containing mutations were validated by sequencing with five randomly selected single colonies. pMD®19-T plasmids including four CSP8 mutants were digested with Bam HI and Hind III restriction enzymes. Then, the target sequences were ligated into the expression vector pET28a (+) and transformed into BL21 (DE3) competent cells for expression. After sequencing verification, the corresponding rGmolCSP8 mutant proteins were induced and purified, and the binding affinities to 1-hexanol and its analogs were verified via ligand-binding assays according to the method described above.

GmolCSP8-L80A = GmolCSP8-L80A (Grapholita molesta, UniProt A0A0M4FML8, L95A); assay: biochemical; type: binding
Chain of GmolCSP8-L80A (A0A0M4FML8 entry or part of it L95A): as the sequence (A0A0M4FML8 entry or part of it V55A) above, with A40V, L80A counted along it
Procedure: as §1, §2

GmolCSP8-L30A = GmolCSP8-L30A (Grapholita molesta, UniProt A0A0M4FML8, L45A); assay: biochemical; type: binding
Chain of GmolCSP8-L30A (A0A0M4FML8 entry or part of it L45A): as the sequence (A0A0M4FML8 entry or part of it V55A) above, with L30A, A40V counted along it
Procedure: as §1, §2

GmolCSP8-T27A = GmolCSP8-T27A (Grapholita molesta, UniProt A0A0M4FML8, T42A); assay: biochemical; type: binding
Chain of GmolCSP8-T27A (A0A0M4FML8 entry or part of it T42A): as the sequence (A0A0M4FML8 entry or part of it V55A) above, with T27A, A40V counted along it
Procedure: as §1, §2

rGmolCSP8 [2] = target: T1, rGmolCSP8; assay: Effect of pH on the binding affinity of rGmolCSP8
Procedure: Based on the fluorescent binding assays described above, we further assessed the effects of pH on the binding abilities of GmolCSP8 with strongly bound ligand. The binding affinities of rGmolCSP8 to the representative ligand 1- hexanol were measured at six different pH values (4.0, 5.0, 6.8, 7.4, 8.0, and 8.8) in 20 mM Tris–HCl buffer. pH was adjusted by titrating concentrated hydrochloric acid using a PHS-3E pH meter (Shanghai Precision Scientific Instrument Co., Ltd., Shanghai, China). The binding assays and data processing were performed as described previously.
FIGURE 7 Effects of pH on the binding affinities of rGmolCSP8 with 1-hexanol. The mixture solution of 2 μM rGmolCSP8 protein and 2 μM 1-NPN was titrated with 1 mM 1-hexanol stock solution to final concentrations of 22 μM. All data represent a mean of three independent measurements, and the bars denote mean ± SEM.

GmolOBP8 = target: GmolOBP8; parameters: method as in Li et al., 2016a,b; details: ref Li et al., 2016a,b; cited from earlier work
GmolGOBP2 = target: GmolGOBP2; parameters: method as in Li et al., 2016a,b; details: ref Li et al., 2016a,b; cited from earlier work
GmolOBP15 = target: GmolOBP15; parameters: method as in Li et al., 2016a,b; details: ref Li et al., 2016a,b; cited from earlier work
[3] = 2 μM rGmolCSP8 and 2 μM 1-NPN, 20 mM Tris-HCl pH 7.4, read-out: IC50
[4] = 2 μM rGmolCSP8 and 2 μM 1-NPN, pH 7.4, calculated from IC50, read-out: Ki

T1 sequence (A0A0M4FML8 entry or part of it): as the sequence (A0A0M4FML8 entry or part of it V55A) above, with A40V counted along it

CCCCCCCCCCCCCCO [1-tetradecanol]
IC50 (rGmolCSP8 [1]): > 24 µM
Ki (rGmolCSP8 [1]): > 24 µM
binding to rGmolCSP8 (in words) (rGmolCSP8 [1]; wild-type rGmolCSP8, pH 7.4): unable to bind

CCCCCCO [1-hexanol]
Ki (GmolCSP8-V40A): 2.67 ± 0.34 µM
Ki (GmolCSP8-L80A): 1.8 ± 0.15 µM
Ki (GmolCSP8-L30A): 12.5 ± 1.12 µM
fold decrease in binding vs wild-type (GmolCSP8-L30A; mutant L30A compared with wild-type rGmolCSP8): 6 fold
IC50 (GmolCSP8-T27A): > 24 µM
binding to mutant T27A (in words) (GmolCSP8-T27A; mutant T27A compared with wild-type): abolished the ability to bind
Ki (GmolCSP8-T27A; read-out: Ki (μM) T27A, mutant T27A, – = did not displace 50% 1-NPN at ligand up to 24 μM): > 24 µM
binding affinity (in words) (rGmolCSP8 [2]; pH 4.0): very weak affinity
effect of pH on binding affinity (in words) (rGmolCSP8 [2]; pH 4.0, 5.0, 6.8, 7.4, 8.0, 8.8 in 20 mM Tris-HCl): higher at pH 6.8–8.0 than at pH 4.0–5.0 and 8.8
binding affinity (in words) (rGmolCSP8 [2]; pH 6.8–8.0): strong binding affinity
IC50 (rGmolCSP8 [1]): 2.26 ± 0.34 µM
binding to rGmolCSP8 (in words) (rGmolCSP8 [1]; wild-type rGmolCSP8, pH 7.4): strongest binding affinities

O=Cc1ccccc1 [Benzaldehyde]
IC50 (rGmolCSP8 [1]): > 24 µM
Ki (rGmolCSP8 [1]): > 24 µM
binding to rGmolCSP8 (in words) (rGmolCSP8 [1]; wild-type rGmolCSP8, pH 7.4): cannot bind

CCCCCCOC(C)=O [Hexyl acetate]
IC50 (rGmolCSP8 [1]; [3]): > 24 µM
Ki (rGmolCSP8 [1]; [4]): > 24 µM

CCCCCCCCCC=O [Decanal]
IC50 (rGmolCSP8 [1]; [3]): > 24 µM
Ki (rGmolCSP8 [1]; [4]): > 24 µM

CCCCCC(=O)OCC [Ethyl hexanoate]
IC50 (rGmolCSP8 [1]; [3]): > 24 µM
Ki (rGmolCSP8 [1]; [4]): > 24 µM

CCCCCCCCCC [Decane]
IC50 (rGmolCSP8 [1]; [3]): > 24 µM
Ki (rGmolCSP8 [1]; [4]): > 24 µM

CCC/C=C/CCCCCCCOC(C)=O [(E)-8-dodecenyl acetate]
IC50 (rGmolCSP8 [1]; [3]): > 24 µM
Ki (rGmolCSP8 [1]; [4]): > 24 µM

CCCCCCCCCCCCO [1-dodecanol]
IC50 (rGmolCSP8 [1]; [3]): 13.5 ± 0.83 µM
Ki (rGmolCSP8 [1]; [4]): 12.9 ± 0.56 µM
binding affinity class (strong/medium/weak) (rGmolCSP8 [1]; wild-type rGmolCSP8, pH 7.4): medium (an IC50 value between 10 and 20 μM indicated that ligands demonstrated medium binding ability to protein)
Ki (GmolOBP8): 4.39 µM
Ki (GmolGOBP2): 1.22 µM
Ki (GmolOBP15): 3.24 µM

CC/C=C\CCO [Cis-3-hexen-1-ol]
IC50 (rGmolCSP8 [1]; [3]): 9.14 ± 0.73 µM
Ki (rGmolCSP8 [1]; [4]): 8.51 ± 0.68 µM

CCC/C=C/C=O [(E)-2-hexenal]
IC50 (rGmolCSP8 [1]; [3]): > 24 µM
Ki (rGmolCSP8 [1]; [4]): > 24 µM
binding to rGmolCSP8 (in words) (rGmolCSP8 [1]; wild-type rGmolCSP8, pH 7.4): cannot bind

CCC/C=C\CCCCCCCOC(C)=O [(Z)-8-dodecenyl acetate]
IC50 (rGmolCSP8 [1]; [3]): > 24 µM
Ki (rGmolCSP8 [1]; [4]): > 24 µM

CCCCCC(=O)OCCCC [Butyl hexanoate]
IC50 (rGmolCSP8 [1]; [3]): > 24 µM
Ki (rGmolCSP8 [1]; [4]): > 24 µM
binding to rGmolCSP8 (in words) (rGmolCSP8 [1]; wild-type rGmolCSP8, pH 7.4): cannot bind

CCCCOC(C)=O [Butyl acetate]
IC50 (rGmolCSP8 [1]): > 24 µM
Ki (rGmolCSP8 [1]): > 24 µM

CC1=CCC2CC1C2(C)C (stereo not drawn) [α-Pinene]
IC50 (rGmolCSP8 [1]; [3]): > 24 µM
Ki (rGmolCSP8 [1]; [4]): > 24 µM
binding to rGmolCSP8 (in words) (rGmolCSP8 [1]; wild-type rGmolCSP8, pH 7.4): cannot bind

COC(=O)c1ccccc1O [Methyl salicylate]
IC50 (rGmolCSP8 [1]; [3]): > 24 µM
Ki (rGmolCSP8 [1]; [4]): > 24 µM

CCCCCCCCCCO [1-decanol]
Ki (GmolCSP8-V40A): 7.02 ± 0.47 µM
Ki (GmolCSP8-L80A): 6.32 ± 0.65 µM
binding to mutant L30A (in words) (GmolCSP8-L30A; mutant L30A compared with wild-type): lost its ability to bind
Ki (GmolCSP8-L30A; read-out: Ki (μM) L30A, mutant L30A, – = lost ability to bind): > 24 µM
Ki (GmolCSP8-T27A): 12.7 ± 1.79 µM
fold decrease in binding vs wild-type (GmolCSP8-T27A; mutant T27A compared with wild-type rGmolCSP8): 1.5- to 2.0 fold
IC50 (rGmolCSP8 [1]; [3]): 7.16 ± 0.58 µM
Ki (rGmolCSP8 [1]; [4]): 6.6 ± 0.54 µM

CC/C=C\CCOC(C)=O [Cis-3-hexenyl acetate]
IC50 (rGmolCSP8 [1]; [3]): > 24 µM
Ki (rGmolCSP8 [1]; [4]): > 24 µM
binding to rGmolCSP8 (in words) (rGmolCSP8 [1]; wild-type rGmolCSP8, pH 7.4): cannot bind

CC/C=C\CC1C(=O)CCC1CC(=O)OC (stereo not shown) [Methyl jasmonate]
IC50 (rGmolCSP8 [1]; [3]): > 24 µM
Ki (rGmolCSP8 [1]; [4]): > 24 µM
